Test results published in patent US5789589A, “Guanine analog phosphates” (Drug Innovation & Design, Inc., priority 1996, dated 1998).

Assays:
[1] = test system: TK^+ HSV 1; test: In vitro antiviral activity (CPE) against TK^+ HSV-1 (BWVL#10186) in Vero cells; type: cell-based, Herpes type 1 virus (HSV-1), human clinical isolate; conditions: for EC50: Human alphaherpesvirus 1, TK^+ HSV 1, Vero cells, CPE, about 72 hours, read-out: ED50 (the source's name); for Activity compared with acyclovir (in words): in vitro, TK^+ HSV-1
Procedure: (§1) The following test were carried out essentially as described by Sidwell and Huffman (Sidwell, et al., App. Microbiol., 22:797-801 (1971)), and was used in the reports on the in vitro antiviral activity of ribavirin (Sidwell, et al. Science, 177:705-706 (1972); Huffman, et al., Antimicrob. Ag. Chemother., 3:235-241 (1973)).
(§2) Herpes type 1 virus (HSV-1), BWVL#10186, is a thymidine kinase positive (TK^+) human clinical isolate provided by Dr. M. Nixon Ellis, Burroughs Wellcome Co. (Research Triangle Park, N.C.). The BWVL#10168 strain of HSV-1 is a TK- patient isolate (resistant partner to 10186) that was also provided by Dr. Ellis. Both strains were prepared in Vero cells, ampuled, and frozen at -80° C. Antiviral testing was performed in Vero cells.
(§3) Vero (continuously passaged African green monkey kidney) was obtained from the American Type Culture Collection (ATCC) (Rockville, Md.). Growth medium was Medium 199, 5% FBS and 0.1% NaHCO3. Test medium was Eagle's minimum essential medium with non-essential amino acids (MEM), with 2% FBS, 0.18% NaHCO3 and 50 μg gentamicin/ml. The growth medium contained no antibiotics.
(§4) Compounds were weighed and a sufficient amount added to DMSO (American Type Culture Collection, Rockville, Md.) to prepare a solution at 20 mg/ml.
(§5) Cells were seeded to 96-well flat-bottomed tissue culture plates (Corning Glass Works, Corning, N.Y.), 0.2 ml/well, at the proper cell concentration, and incubated overnight at 37° C. in order to establish cell monolayers. The growth medium was decanted and the various dilutions of test compound were added to each well (4 wells/dilution, 0.1 ml/well). Compound diluent medium was added to cell and virus control wells (0.1 ml/well). Virus, diluted in test medium, was added to compound test wells (3 wells/dilution of compound) and to virus control wells at 0.1 ml/well. Virus was added approximately 5 minutes after compound. Test medium without virus was added to all toxicity control wells (1 well/dilution of each test compound) and to cell control wells at 0.1 ml/well. The plates were sealed with plastic wrap (SARAN™) and incubated at 37° C. in a humidified incubator with 5% CO2, 95% air atmosphere until virus control had adequate cytopathic effect (CPE) readings. This was usually achieved after 72 hours. Cells were then examined microscopically for CPE, this being scored from 0 (normal cells) to 4 (maximal, 100%, CPE). The cells in the toxicity control wells were observed microscopically for morphologic changes attributed to cytotoxicity. This cytotoxicity was graded as: T (assigned 100% toxicity), PVH (assigned 80% cytotoxicity), PH (assigned 60% cytotoxicity), P (assigned 40% cytotoxicity), PSI (assigned 20% cytotoxicity), and 0 (normal cells). The 50% effective dose (ED50) and 50% cytotoxic dose (CD50) were calculated by regression analysis of the virus CPE data and the toxicity control data, respectively.
(§6) A known active substance, acyclovir, was run in the same manner as above for each batch of compounds tested.

[2] = test system: TK^- HSV 1; test: In vitro antiviral activity (CPE) against TK^- acyclovir resistant HSV-1 (BWVL#10168) in Vero cells; type: cell-based, Herpes type 1 virus (HSV-1), patient isolate; conditions: for EC50: Human alphaherpesvirus 1, Vero, 72 h, read-out: ED50; for Activity relative to acyclovir (fold more active): in vitro, acyclovir resistant (TK^-) HSV-1
Procedure: as §1, §2, §3, §4, §5, §6

[3] = in vitro; type: cell-based; conditions: african green monkey, vero cells
Procedure: as §3, §4, §5

[4] = test system: herpes simplex labialis; conditions: cited from earlier work
[5] = test system: HSV-1; test: Dermal HSV-1 infection in guinea pigs, topical treatment; type: in vivo, Female Hartley outbred guinea pigs; conditions: for Comparison with U.S. ZOVIRAX in all three efficacy parameters: Mann-Whitney test, p=0.0008, 0.0008, 0.001; for Reduction in lesion number (in words): guinea pigs with dermal HSV-1 lesions, compared to vehicle; for Lesion Number, % Diff vs placebo / Lesion virus titer, % Diff vs placebo / Total Lesion Area, % Diff vs placebo: positive value = reduction vs vehicle, p=0.012; for Lesion virus titer, mean: skin taken Day 4, plaque formation in VERO cells; for Lesion Number, mean: prodrug cream (1.2% Prodrug 1 or 1.87% Prodrug 2) 2x/day on Days 1, 2 and 3
Procedure: The formulation for Prodrugs 1 and 2 contained 5% EL-620 EMULPHOR (polyoxyethylated castor oil) (Rhone Poluenc), 5% CARBOPOL (Carboxypolymethylene, sodium salt) (B.F. Goodrich), 10% ethanol and 1.2% by weight Prodrug 1 (or 1.87% by weight Prodrug 2). The balance of the formulation consisted of water.
EL-620 EMULPHOR and water were mixed and ultrasonicated to give a clear emulsion, to which the ethanol was added. The prodrug was then added, and the mixture was ultrasonicated to give an opalescent emulsion. The sodium carbopol was then added to the emulsion and mixed until to homogeneity.
The placebo was prepared identically to the pharmaceutical compositions except that the prodrugs were omitted.
Female Hartley outbred guinea pigs, 400 to 450 grams, were obtained from Charles River Breeding Labs, Wilmington, Mass. Animals were anesthetized with 25 mg/kg ketamine and 5 mg/kg xylazine SQ. Hair on the dorsum from the shoulders to the rump was removed with electric clippers followed by two 5-10 minute applications of a chemical depilatory. A grid of four areas was demarcated with a pen on both sides of the spine at levels corresponding to mid back and rump.
Undiluted HSV-1 virus stock (0.035 ml) was applied to each different area and introduced through the skin at well-spaced sites at ten activations of a six-pronged spring-loaded vaccination instrument (Sterneedle, Pan Ray Division, Ormont Drug, Englewood, N.J.). The day of inoculation is Day 0. Approximately 250 mg of drug or placebo was applied to the areas according to the dosing regimen on Days 1, 2 and 3. Eight guinea pigs were used during the experiments allowing eight comparisons between each drug and its placebo. 5% ZOVIRAX ointment U.S.A. (Acyclovir) applied 4×/day was used as a control.
On Day 4 regrown hair on the dorsum of the guinea pigs was removed with one 3-4 minute application of a chemical depilatory. HSV lesions were counted and Polaroid pictures of the animals' backs were taken. The animals were sacrificed using CO2 gas and the full thickness skin of the back was removed by dissection. The square of the skin from each of the four treatment areas was placed into 15 mls of tissue culture medium with 2% FBS in an ice bath. The samples were then homogenized in a stomacher Lab Blender 80 (Tekmar Co.). Debris was pelleted by centrifugation and the supernatants collected and frozen at -70 C. until assay for infectivity by plaque formation in VERO cells.
The mean and standard deviation for number of lesions, total lesion area and lesion virus titer were computed for each treatment pair. Paired data (drug/vehicle) were evaluated by the Wilcoxon signed-rank test using percent differences between log10 derivatives of mean lesions severity at drug-treated sites compared to the vehicle-treated sites.

[6] = test system: pig liver esterase; test: Incubation with pig liver esterase in phosphate buffered D2O, NMR; type: in vitro ADME
[7] = test system: Herpes Simplex Virus-1; test: Healing of vaginal lesions in mice caused by Herpes Simplex Virus-1; type: in vivo; conditions: topical application
[8] = prodrug cream 2x/day on Days 1, 2 and 3, assessed Day 4, n=8
[9] = prodrug cream 2x/day on Days 1, 2 and 3, n=8
[10] = prodrug cream 2x/day on Days 1, 2 and 3

| Structure (SMILES) | EC50 [1] | EC50 [2] | CC50 [3] | Effectiveness of oral administration in treatment of cold sores ([4]; oral) | Response of cold sores to topical treatment ([4]; topical) | Comparison with U.S. ZOVIRAX in all three efficacy parameters [5] | Reduction in lesion number (in words) [5] | Lesion Number, median [5, 8] | Total Lesion Area, mean [5, 8] | Total Lesion Area, median [5, 8] | Lesion virus titer, median [5, 9] | Lesion Number, % Diff vs placebo [5, 10] | Lesion virus titer, % Diff vs placebo [5, 10] | Total Lesion Area, % Diff vs placebo [5, 10] | Lesion virus titer, mean [5, 9] | Lesion Number, mean ([5]; assessed Day 4, n=8) | Activity compared with acyclovir (in words) [1] | Activity relative to acyclovir (fold more active) [2] | Degradation by pig liver esterase [6] | Healing of vaginal lesions [7] |
| --- | --- | --- | --- | --- | --- | --- | --- | --- | --- | --- | --- | --- | --- | --- | --- | --- | --- | --- | --- | --- |
| Nc1nc2c(ncn2COCCO)c(=O)[nH]1 [Acyclovir, acyclovir, reference compound] | 1.4 µM | 35 µM | > 100 µg/mL | only partially effective | do not respond to the topical treatment | – | – | – | – | – | – | – | – | – | – | – | – | – | – | – |
| COC(=O)CC(OP(=O)(OCCOCn1cnc2c(=O)[nH]c(N)nc21)OC(CC(=O)OC)c1ccc(OC(C)=O)cc1)c1ccc(OC(C)=O)cc1 (stereo not drawn) [Prodrug 1] | 4.6 µM | 17 µM | > 100 µg/mL | – | – | worked significantly better than U.S. ZOVIRAX in all three of the efficacy parameters measured | dramatic reduction in lesion number | 32.0 | 106 mm2 | 107 mm2 | 3.17 log (pfu/ml) | 45% | 96% | 59% | 3.07 log (pfu/ml) | 32 | same order of magnitude as acyclovir | about 2 × | degraded to acyclovir monophosphate and p-hydroxycinnamic | – |
| COC(=O)CC(OP(=O)(OCCOCn1cnc2c(=O)[nH]c(N)nc21)OC(CC(=O)OC)c1ccc(OC(=O)C(C)(C)C)cc1)c1ccc(OC(=O)C(C)(C)C)cc1 (stereo not drawn) [Prodrug 2] | 6.3 µM | 7.5 µM | > 100 µg/mL | – | – | worked significantly better than U.S. ZOVIRAX in all three of the efficacy parameters measured | dramatic reduction in lesion number | 36.0 | – | 109 mm2 | 3.12 log (pfu/ml) | 35% | 97% | 57% | 2.87 log (pfu/ml) | 37 | same order of magnitude as acyclovir | about 5 × | – | effective in promoting the healing of vaginal lesions in mice |
| COC(=O)CC(O[PH](=O)OCCOCn1cnc2c(=O)[nH]c(N)nc21)c1ccc(OC(=O)C(C)(C)C)cc1 (stereo not drawn) [Prodrug 3] | 5.5 µM | 37 µM | > 100 µg/mL | – | – | – | – | – | – | – | – | – | – | – | – | – | same order of magnitude as acyclovir | – | – | – |
